Measured values from US10376476B2, “Panicein compounds, compositions and uses thereof” (CENTRE NATIONAL DE LA RECHERCHE SCIENTIFIQUE, priority 2014, dated 2019).

Experiments:
MeWo cells = test: Doxorubicin efflux from melanoma cells (intracellular dxr fluorescence); format: cell-based, human; details: loaded with 10 μM dxr, 10 μM compound, 30 min efflux
Method: (§1) A. Compound P5 inhibits doxorubicin efflux from melanoma cells MeWo and A375. Cells were grown on cover-slips, incubated for 2 hour at 37° C. with 10 μM doxorubicin and quickly rinsed with phosphate buffer (pH 7.4). One cover-slip of each cell line was immediately fixed for doxorubicin charge control. The other cover-slips were incubated with buffer supplemented with DMSO or 10 μM of compound P5 30 min under gentle shaking and immediately fixed. Dxr intracellular fluorescence was visualized by epifluorescence and analyzed using Image J software on more than 30 cells of 3 different fields for each condition. The results were analyzed using the Student t test in which significance is attained at P<0.05 (**: P<0.005, ***: P<0.0005). […] Dxr intracellular fluorescence quantification was carried out using Image J software on more than 30 yeasts on 3 different fields for each condition. The results were analyzed using the Student t test in which significance is attained at P<0.05 (*).
(§2) On melanoma cells: For doxorubicin incorporation in melanoma cells, the protocol was adapted from Bidet et al. (2012). […] Quantification of doxorubicin intracellular fluorescence was carried out using Image J software on more than 30 cells of 3 different fields for each condition. The results were analyzed using the Student t test in which significance is attained at P<0.05.

A375 cells = test: as above; format: cell-based, human; details: A375, loaded with 10 μM dxr, 10 μM compound, 30 min efflux
Method: as §1, §2

[1] = system: Patched protein in MEWO and A375 cells; test: Western blotting of Patched after panicein treatment; format: cell-based, human; details: 24 hours, 10 μM
Method: Western-blotting on total extracts from MEWO and A375 cells after 24 h treatment with 10 μM of panicein A hydroquinone (P5) or with DMSO.
Total extracts from melanoma cells were prepared. Samples were separated on 8% SDS-PAGE and transferred to nitrocellulose membranes (Amersham) using standard techniques. After 1 hour at room temperature in blocking buffer (20 mmol/L Tris-HCl pH 7.5, 450 mmol/L NaCl, 0.1% Tween-20, and 4% non-fat milk), nitrocellulose membranes were incubated overnight at 4° C. with rabbit anti-Patched antiserum (Ab130.6 1:1000 generous gift from M. Ruat or Ab39266 from Abcam 1/1000) and monoclonal mouse anti-βtubulin antibody (Sigma; 1/1000). After 3 washes, membranes were incubated 45 min with anti-mouse (1:5000) or anti-rabbit (1:3000) immunoglobulin coupled to horseradish peroxidase (Dako). Detection was carried out with an ECL kit (Millipore) on a Las3000 (Fuji).

keratinocytes HaCaT = test: Doxorubicin efflux from cells (intracellular dxr fluorescence); format: cell-based
melanoma cells = test: Apoptosis by AnnexinV and DAPI co-staining; format: cell-based, human
Method: Cells were sampled after 24 h treatment with DMSO, paniceins and/or dxr, and apoptosis determined via AnnexinV and DAPI co-staining. Cells in early apoptosis are AnnexinV positive and DAPI negative, and cells in late apoptosis are AnnexinV and DAPI double positive. Histograms represent the mean percentage (+/−SEM) of cells in late apoptosis from three independent experiments and were analyzed using the Student t-test in which significance is attained at P<0.05 (*) (**: P<0.005).

## COc1cc(C)c(CC/C(C)=C/Cc2cc(O)ccc2O)c(C)c1C [P5, Panicein A hydroquinone]
MeWo cells
  increase of dxr in cells (dxr fluorescence intensity) after efflux: about 25%
A375 cells
  increase of dxr in cells (dxr fluorescence intensity) after efflux: about 25%
[1]
  effect on Patched expression or degradation: no effect
Keratinocytes HaCaT
  increase of dxr in cells (dxr fluorescence intensity) after efflux: contrary to “healthy” keratinocytes HaCaT
Melanoma cells; 24 h treatment with paniceins and/or dxr
  early apoptosis (Annexin V and DAPI labeling): increases early apoptosis
Melanoma cells; 24 h treatment, AnnexinV and DAPI co-staining
  number of apoptotic melanoma cells: strongly increases
